Results published in paper PMC10304178, “Influence of Polyvinylpyrrolidone Molecular Weight and Concentration on the Precipitation Inhibition of Supersaturated Solutions of Poorly Soluble Drugs” (Pharmaceutics, 2023).

How the values were obtained:
[1] = Equilibrium solubility of the drugs in PVP solutions (shake-flask solubility test); type: physicochemical
Experimental: An excess amount of the drug was added to 15 mL corning tubes containing either pure 0.1 M phosphate buffer (pH 7.4) or 0.1, 0.5 and 1% (w/v) solutions of PVP K15, K30, K60 or […], respectively. […] The saturated solution and the precipitate were separated by centrifugation for 10 min at 13,000 rpm in an Eppendorf Centrifuge 5810 R (Hamburg, Germany), followed by filtration intro ultra-performance liquid chromatography (UPLC) vials using a syringe filter (33 mm, 0.45 μm) PVDF membrane (2 mL filter sample prewet volume), acquired from Merck (Darmstadt, Germany). The tests were conducted in triplicate. The concentration of drug in the respective samples was quantified by reverse-phase chromatography using a Waters Acquity Classic UPLC system (Milford, MA, USA) equipped with an automated sample injector, a binary pump and a tunable UV detector. All samples were analyzed using a Waters Acquity UPLC BEH C18 column (130 Å, 1.7 μm, 2.1 × 50 mm) (Milford, MA, USA) at a column temperature of 50 °C for ketoconazole and tadalafil and 80 °C for albendazole. The samples were injected with a volume of s 6 μL and subsequently eluted at a flow rate of 0.8 mL/min. For albendazole and tadalafil, eluent A was a mixture of 90% (v/v) sodium sulfate (60 mM), di-ammonium hydrogen phosphate (5.5 mM) and phosphoric acid (34.5 mM) in Milli-Q water (pH 2.3) and 10% (v/v) acetonitrile. For ketoconazole, eluent A was a mixture of 90% (v/v) sodium sulfate (60 mM), di-ammonium hydrogen phosphate (5.5 mM) and phosphoric acid (34.5 mM) in Milli-Q water (pH 7.2) and 10% (v/v) acetonitrile. For tadalafil, albendazole and ketoconazole, eluent B was a mixture of 20% (v/v) Milli-Q water and 80% (v/v) acetonitrile. Albendazole was quantified in the samples using UV at a wavelength of 229 nm, while tadalafil was quantified at 284 nm and ketoconazole at 240 nm.

[2] = Supersaturation study by solvent-shift method (µDISS Profiler): induction time and slope of time–concentration profiles; type: physicochemical; conditions: for Influence of PVP concentration on tind and slope of the time–concentration profile / Influence of viscosity of the PVP solution on tind or slope of the time–concentration profile: multiple linear regression coefficient plot, 95% confidence interval
From the text: Time-concentration profiles of the drugs in a supersaturated solution in the absence and presence of PVP were obtained to study the influence of the polymer on the onset of the nucleation and precipitation rate of the drug from a supersaturated solution. Supersaturation of the drug was induced by the use of a method previously developed. Briefly, a […] ProfilerTM (Billerica, MA, USA) was used to obtain in situ UV spectra in the range from 200 to 720 nm. Probe tip lengths of 5, 10 or 20 mm were selected to obtain an absorbance in the range between 0.3 and 1. The vials were stirred using a crossbar magnet at ~100 rpm at a temperature of 37 °C. […] The UV wavelength range used to quantify the drug was 267-288 nm for albendazole, 304-360 nm for ketoconazole and 299-328 nm for tadalafil. […] Standard curves were prepared with six replicates by adding aliquots of 15 μL DMSO stock solution of the drug to the dissolution medium. The initial concentration of the drug was determined by using the highest concentration of the drug for which no instantaneous precipitation occurred. Precipitation was detected by a deviation from the linearity of the standard curve, a sharp shift in the baseline in the UV spectrum or through visual inspection of the solution. To induce supersaturation, 100 μL of a DMSO stock solution of the drug was transferred into glass vials containing 10 mL solutions of PVP K15, K30, K60 or […]. […] The drug concentration was monitored in situ by the second derivative of the UV absorbance. The second derivative was used to minimize UV interferences from the precipitate. The experiments were ended when the concentrations of the respective drugs reached their equilibrium solubility. The induction time of the time-concentration profiles was used as a surrogate for the onset of the nucleation of the respective drugs, and the slope of the time-concentration profiles was used as a surrogate for the precipitation rate of the respective drugs. The induction time (tind) and the slope of the time-concentration profile were determined using TA Instruments Trios software (New Castle, DE, USA). The induction time of the time-concentration profile in minutes was estimated using the onset time function via the tangent. The slope of the time-concentration profile in (μg/mL)/min was estimated using the slope function. Multiple linear regression analysis was conducted using Umetrics MODDE11 pro (Glostrup, Denmark) to delineate the influence of PVP molecular weight and concentration on the onset of nucleation and the precipitation rate of albendazole, tadalafil and ketoconazole. The tind and slope from the time-concentration profiles were used as the response values, whereas PVP concentration and the viscosity of the PVP solutions were used as the input predictors. It should be noted that the viscosity of the PVP solutions is used instead of the molecular weights of PVP, and therefore, the impact of the viscosity of solutions of PVP is the same as that of the molecular weight. The three levels for the concentration factor were 0.1, 0.5 and 1% (w/v), and the four levels for the viscosity factor were the viscosities of the solutions of PVP K15, K30, K60 and […]. […] The equilibrium solubility, viscosity of the PVP solutions, tind and slope of time-concentration profile during supersaturation of the drugs are given as the mean ± standard deviation (SD). […] Microsoft Excel (Redmond, WA, USA) was used for this analysis. The criteria for determining statistical significance in all tests were set at p < 0.05.

[3] = design: method as in PMID 29481859; conditions: absence of polymer; cited from earlier work
[4] = same concentration of repeating monomer units of PVP K15, K30, K60 and K120 (effect of molecular weight), p > 0.05
[5] = solution of 0.1% (w/v) PVP compared to the phosphate buffer pH 7.4, 37 °C, ANOVA
[6] = solutions of 0.5 and 1% (w/v) PVP, pH 7.4, 37 °C, ANOVA p < 0.05
[7] = 1 mPa.s isoviscous solutions of PVP K15, K30, K60 and K120, increasing PVP molecular weight, p < 0.05
[8] = PVP K15, K30, K60 and K120, PVP concentration increased from 0.1 to 0.5% and again from 0.5 to 1% (w/v), ANOVA p < 0.05
[9] = PVP K15, K30, K60 and K120, concentration increased from 0.1 to 0.5% and again from 0.5 to 1% (w/v), p < 0.05
[10] = PVP K15, K30, K60 and K120 compared at the same concentration (0.1, 0.5, 1% w/v), p > 0.05
[11] = same concentrations (0.1, 0.5, 1% w/v) of PVP K15, K30, K60 and K120 (effect of molecular weight), p > 0.05

Row | SMILES | Equilibrium solubility [1, 4] | Equilibrium solubility [1, 5] | Equilibrium solubility [1, 6] | Slope of the time–concentration profile (precipitation rate) [2, 7] | Induction time (tind) [2, 8] | Slope of the time–concentration profile (precipitation rate) [2, 9] | Slope of the time–concentration profile (precipitation rate) [2, 10] | Influence of PVP concentration on tind and slope of the time–concentration profile [2] | Influence of viscosity of the PVP solution on tind or slope of the time–concentration profile [2] | Induction time (tind) [2, 11] | Onset time of nucleation [3] [min] | Equilibrium solubility ([1]; increasing the concentration of PVP to 1% (w/v), p < 0.05) | Equilibrium solubility ([1]; solutions of 0.1% and 0.5% (w/v) PVP compared to phosphate buffer, p < 0.05) | Slope of the time–concentration profile (precipitation rate) ([2]; 0.1% (w/v) PVP K15 compared with PVP K30, K60 and K120, p < 0.05) | Slope of the time–concentration profile (precipitation rate) ([2]; PVP K15, K30, K60 and K120, concentration increased from 0.1 to 0.5% (w/v), p < 0.05) | Induction time (tind) ([2]; PVP K15, concentration increased from 0.1 to 0.5% and again from 0.5 to 1% (w/v), p < 0.05) | Induction time (tind) ([2]; PVP K30, concentration increased from 0.1 to 0.5% (w/v), p > 0.05) | Induction time (tind) ([2]; PVP K30, concentration increased from 0.5 to 1% (w/v), p < 0.05) | Induction time (tind) ([2]; PVP K60 and K120, concentration increased from 0.1 to 0.5% and again from 0.5 to 1% (w/v), p > 0.05)
1 | CCCSc1ccc2nc(NC(=O)OC)[nH]c2c1 [albendazole, Albendazole] | No statistically significant increase | no statistically significant increase | statistically significant increase | statistically significant difference | statistically significant increase | statistically significant difference | no statistically significant differences | significant influence | no significant influence | no statistically significant differences | – | – | – | – | – | – | – | – | –
2 | NS(=O)(=O)c1cc2c(cc1Cl)N=C(CSCc1ccccc1)NS2(=O)=O [benzthiazide] | – | – | – | – | – | – | – | – | – | – | 4 | – | – | – | – | – | – | – | –
3 | CC(=O)N1CCN(c2ccc(OCC3COC(Cn4ccnc4)(c4ccc(Cl)cc4Cl)O3)cc2)CC1 (stereo not shown) [ketoconazole] | No statistically significant increase | – | – | statistically significant difference | – | – | – | significant influence | no significant influence | no statistically significant differences | – | further statistically significant increase | statistically significant increase | statistically significant difference | statistically significant difference | statistically significant increase | no statistically significant increase | statistically significant increase | no statistically significant differences
4 | CN1CC(=O)N2[C@H](c3ccc4c(c3)OCO4)c3[nH]c4ccccc4c3C[C@@H]2C1=O [tadalafil] | No statistically significant increase | no statistically significant increase | statistically significant increase | statistically significant difference | statistically significant increase | statistically significant difference | no statistically significant differences | significant influence | no significant influence | no statistically significant differences | – | – | – | – | – | – | – | – | –
